Source: EP1844039B1, “5-SUBSTITUTED QUINOLINE AND ISOQUINOLINE DERIVATIVES, A METHOD FOR THE PRODUCTION THEREOF AND THEIR USE AS ANTIPHLOGISTICS” (priority 2004, dated 2006)

How the values were obtained:
[1] = tested on: Tyrosinaminotranferase (TAT); test: Induction of tyrosine aminotransferase (TAT) in hepatoma cells, 24 h treatment, photometric; type: cell-based, Ratten; settings: rat hepatoma cells; for Efficacy: Efficacy von Dexamethason = 100%
Source text: Immunologische Grundlagen, Pharmakologie und Therapierichtlinien, Wissenschafliche Verlagsgesellschaft mbH, Stuttgart, 1998]. Ursache hierfür ist die Stimulation der Gluconeogenese in der Leber durch Induktion der hierfür verantwortlichen Enzyme und durch freie Aminosäuren, die aus dem Abbau von Proteinen (katabole Wirkung der Glucocorticoide) entstehen. Ein Schlüsselenzym des katabolen Stoffwechsels in der Leber ist die Tyrosinaminotranferase (TAT). Die Aktivität dieses Enzyms kann photometrisch aus Zellkulturen von behandelten Ratten-Hepatomzellen bestimmt werden. Die Zellen werden für 24 Stunden mit den Testsubstanzen behandelt und anschließend die TAT-Aktivität gemessen.

IL-8 = test: Inhibition of LPS-induced IL-8 secretion in THP-1 cells (ELISA of supernatant); type: cell-based, menschlichen; settings: for Efficacy: Efficacy von Dexamethason = 100%; for IC50: Homo sapiens
Source text: Die erfindungsgemäßen Verbindungen der allgemeinen Formel (IIa) und (IIb) hemmen die durch Lipopolysaccharid (LPS) induzierte Sekretion des Zytokins IL-8 in der menschlichen Monozytenzelline THP-1.

[2] = Skin atrophy induction, 18 days daily local treatment, skin fold thickness measurement; type: in vivo; settings: rats
Source text: Eine weitere, besonders nach lokaler Therapie, auftretende unerwünschte Wirkung ist die Induktion einer Hautatrophie, die zu einem Verlust der Haut an Dicke, Elastizität und letztlich der mechanischen Belastbarkeit der Haut führt. Das Potential einer Substanz, Hautatrophie zu induzieren, kann in Ratten bestimmt werden. Die Tiere werden dafür 18 Tage täglich lokal in äquieffektiven Dosierungen mit den Testsubstanzen behandelt. Mittels einer Hautfaltendickenmessung läßt sich die Abnahme der Hautdicke über die Behandlungszeit verfolgen.
Im Vergleich zu Clobetasolpropionat, das bei einer Konzentration von 0.01 % (maximale anti-inflammatorische Wirkung wird erreicht) zu einer 65%igen Reduktion der Hautdicke führt, ist bei Beispiel 1 bei einer Konzentration von 0.1 % (maximale anti-inflammatorische Wirkung wird erreicht) nur eine 41 %ige Reduktion festzustellen.
Dieser Vorteil ist auch gegenüber den Substanzen aus der Anmeldung WO03/082827 zu sehen; beispielsweise induziert das Eutomer von Beispiel 36 bereits bei einer Konzentration von 0.06% (maximale anti-inflammatorische Wirkung) eine 60%ige Reduktion der Hautdicke.

EC50 [1] | IC50 (IL-8) | SMILES | Efficacy [1] | Efficacy (IL-8) | Reduktion der Hautdicke ([2]; concentration 0.01 % (maximal anti-inflammatory effect reached)) | Reduktion der Hautdicke ([2]; concentration 0.1 % (maximal anti-inflammatory effect reached))
4 nM | 8.5 nM | Cn1ccc2c(NCC(O)(CC(C)(C)c3cc(F)cc4c3OCC4)C(F)(F)F)cccc2c1=O (racemic) [Beispiel 11, 5-[4-(5-Fluor-2,3-dihydrobenzofuran-7-yl)-2-hydroxy-4-methyl-2-trifluormethylpentylamino]-2-methylisochinol-1(2H)-on] | 86% | 61% | – | –
2.6 nM | 13 nM | C[C@]12C=CC(=O)C=C1CC[C@@H]1[C@@H]2[C@@H](O)C[C@@]2(C)[C@H]1CC[C@]2(O)C(=O)CO [Prednisolon, reference compound] | 103% | 96% | – | –
10 nM | 21 nM | Cc1ccc2c(NCC(O)(CC(C)(C)c3cc(F)cc4c3OCC4)C(F)(F)F)ccc(F)c2n1 (racemic) [Beispiel 10, 8-Fluor-5-[4-(5-Fluor-2,3-dihydrobenzofuran-7-yl)-2-hydroxy-4-methyl-2-trifluormethyl-pentylamino]-2-methylchinolin] | 92% | 86% | – | –

Continued, molecule first:

SMILES | EC50 [1] | IC50 (IL-8) | Efficacy [1] | Efficacy (IL-8) | Reduktion der Hautdicke ([2]; concentration 0.01 % (maximal anti-inflammatory effect reached)) | Reduktion der Hautdicke ([2]; concentration 0.1 % (maximal anti-inflammatory effect reached))
CCC(=O)O[C@]1(C(=O)CCl)[C@@H](C)C[C@H]2[C@@H]3CCC4=CC(=O)C=C[C@]4(C)[C@@]3(F)[C@@H](O)C[C@@]21C [Clobetasolpropionat, reference compound] | – | – | – | – | 65% | –
Cc1ccc2c(NCC(O)(CC(C)(C)c3cc(F)cc4c3OCC4)C(F)(F)F)cccc2n1 (racemic) [Beispiel 1, 5-[4-(5-Fluor-2,3-dihydrobenzofuran-7-yl)-2-hydroxy-4-methyl-2-trifluormethyl-pentylamino]-2-methylchinolin] | 3.7 nM | 5.9 nM | 93% | 74% | – | 41%
